The subject of data set [1] is rats of the ICR strain. The data set can be described thus: Toxicity test on rats in a single dose through oral administration. In kind it is in vivo. Particulars: oral administration of 2,000 mg/kg, suspended in 1% HPC, observation for 14 days. The method, then:
Used in the test were rats of the ICR strain at 6 weeks of age (27.9±0.4 g body weight). They were allowed to freely take food and water; however, fasting was made for a period of 17 hours before administration of the test compounds and for a period of 4 hours after the administration. The respective test compounds were suspended in 1% of hydroxypropyl cellulose (HPC)and orally administered. Until 6 hours after the administration of the test compounds, observation was made frequently, and after that once a day and totally for 14 days.
Used as the test compounds were Compounds 8 and 10.

The test system of data set [2] is amnesia of rats induced by scopolamine. The data set can be described thus: Effects on scopolamine-induced amnesia (passive avoidance task, oral administration). In kind it is in vivo. Particulars: Rattus norvegicus, po, 60 min before retention trial, scopolamine hydrobromide 2 mg/kg i.p., passive avoidance latency, male Strague Dawley rats, read-out: Inhibitory rate (%); for inhibition in vivo at 0.01 mg/kg: 0.01 mg/kg p.o.; for inhibition in vivo at 1 mg/kg: 1 mg/kg p.o. The source says:
Male rats of the Strague Dawley strain at 8 weeks of age (260±2 g body weight) were used for evaluation through passive avoidance task. The apparatus of passive avoidance task comprises illuminated and dark chambers which are separated from each other by a wall with a door. Floors are constituted by grids made of stainless steel; only the grid in the dark chamber is furnished with wiring for electrification.
Effected on the first and second days of testing was preparative training; each rat was placed in the illuminated chamber and left for 3 minutes to habituate to the apparatus. On the third day of testing, the rats were individually placed in the illuminated chamber and after entering the dark chamber, the door was closed and the floor grid was electrified to deliver electric shock (100 V, 0.4 mA, a period of 0.8 sec). In order to induce amnesia, scopolamine hydrobromide (2 mg/kg) was intraperitoneally injected 20 minutes before the electric shock was delivered. Retention in memory on the electric shock was tested 24 hours later; more specifically, retention in passive avoidance trial was measured in terms of a time interval (latency) from placement of each rat in the illuminated chamber to its entry into the dark chamber. The latency over 300 seconds was recorded as 300 seconds. Respective test compounds were suspended in an aqueous solution of 1% carboxymethyl cellulose and orally administered at a dose of 0.01 or 1 mg/kg 60 minutes before the trial.
Antiamnesic effects of the test compounds were evaluated by inhibitory rate (%) which is calculated by the following formula: [formula]
wherein T stands for latency and SC stands for administration of scopolamine hydrobromide. Experimental results are shown in the following table in which, as to each of the test compounds, only the dose showing higher inhibitory rate was indicated.

Experimental findings from patent publication US6635652B1, “Azaindolizinone derivatives and cerebral function improvers containing the same as the active ingredient” (Zenyaku Kogyo Kabushiki Kaisha, priority 1999, dated 2003) are described below.

For the molecule `CC1=CC=CN2C1=NC(=O)C2(Cc1ccccc1)Cc1ccccc1` [Compound 8, 3,3-Dibenzyl-8-methylimidazo[1,2-a]pyridin-2(3H)-one], the “death after single oral dose” value in data set [1] is listed as “None of them induced death”. The inhibition in vivo at 0.01 mg/kg in data set [2] is 34.8%.

For `O=C1N=C2C=CC=CN2C1(Cc1ccccc1)Cc1ccccc1` [Compound 10, 3,3-Dibenzylimidazo[1,2-a]pyridin-2(3H)-one], the “death after single oral dose” value in data set [1] is “None of them induced death”. Further, the inhibition in vivo at 0.01 mg/kg in data set [2] was 78.7%.

With `CC1=CC2=NC(=O)C(Cc3ccccc3)(Cc3ccccc3)N2C(C)=C1` [Compound 9, 3,3-Dibenzyl-5,7-dimethylimidazo[1,2-a]pyridin-2(3H)-one], the melting point – broadly, the temperature, or range, at which the solid turns liquid – was in the range of 237 to 238 °C. Besides, the inhibition in vivo at 1 mg/kg in data set [2] is 66.4%.

With `O=C1N=C2C(O)=CC=CN2C1(Cc1ccccc1)Cc1ccccc1` [Compound 36, 3,3-Dibenzyl-8-hydroxyimidazo[1,2-a]pyridin-2(3H)-one], the melting point was 283 to 285 °C. For the same molecule, the inhibition in vivo at 0.01 mg/kg in data set [2] is 30%.

As for `O=C1N=C2C=CC=CN2C1(Cc1ccc([N+](=O)[O-])cc1)Cc1ccc([N+](=O)[O-])cc1` [Compound 38, 3,3-bis(4-Nitrobenzyl)imidazo[1,2-a]pyridin-2(3H)-one], the melting point was above 300 °C. Further, the inhibition in vivo at 1 mg/kg in data set [2] was 58.5%.

For the molecule `O=C1N=C2C=CC=CN2C1(CCCc1ccccc1)CCCc1ccccc1` [Compound 26, 3,3-bis(3-Phenyl-1-propyl)imidazo[1,2-a]pyridin-2(3H)-one], the melting point lay within 227 to 228 °C. The inhibition in vivo at 0.01 mg/kg in data set [2] was determined as 53.5%.

As to `O=C(O)c1ccc(CC2(Cc3ccc(C(=O)O)cc3)C(=O)N=C3C=CC=CN32)cc1` [Compound 40, 3,3-bis(4-Carboxybenzyl)imidazo[1,2-a]pyridin-2(3H)-one], the melting point is above 300 °C. Besides, the inhibition in vivo at 1 mg/kg in data set [2] amounted to 40.7%.

`COC1=CC=CN2C1=NC(=O)C2(Cc1ccccc1)Cc1ccccc1` [Compound 2, 3,3-Dibenzyl-8-methoxyimidazo[1,2-a]pyridin-2(3H)-one] yielded a melting point of 274 to 275 °C. Besides, in data set [2], the inhibition in vivo at 1 mg/kg was 53%.

As to `O=C1N=C2C=CC=CN2C1(Cc1ccc(F)cc1)Cc1ccc(F)cc1` [Compound 16, 3,3-bis(4-Fluorobenzyl)imidazo[1,2-a]pyridin-2(3H)-one], the melting point lay within 290 to 292 °C. For the same molecule, the inhibition in vivo at 0.01 mg/kg in data set [2] stood at 55.4%.

For `N#Cc1ccc(CC2(Cc3ccc(C#N)cc3)C(=O)N=C3C=CC=CN32)cc1` [Compound 21, 3,3-bis(4-Cyanobenzyl)imidazo[1,2-a]pyridin-2(3H)-one], the melting point was 294 °C (dec.). Moreover, the inhibition in vivo at 0.01 mg/kg in data set [2] was found to be 58%.
